Experimental data reported in patent publication US10023559B2 (Hoffmann-La Roche Inc., priority 2014, dated 2018).

Assays:
mouse TAAR1 = mouse TAAR1 (Mus musculus (Mouse), UniProt Q923Y8); test: Radioligand binding assay on mouse TAAR1
Experimental: (§1) Membrane Preparation and Radioligand Binding.
HEK-293 cells stably expressing mouse TAAR1 were maintained at 37° C. and 5% CO2 in DMEM high glucose medium, containing fetal calf serum (10%, heat inactivated for 30 min at 56° C.), penicillin/streptomycin (1%), and 375 μg/ml geneticin (Gibco). Cells were released from culture flasks using trypsin/EDTA, harvested, washed twice with ice-cold PBS (without Ca^2+ and Mg^2+), pelleted at 1,000 rpm for 5 min at 4° C., frozen and stored at −80° C. Frozen pellets were suspended in 20 ml HEPES-NaOH (20 mM, pH 7.4) containing 10 mM EDTA and homogenized with a Polytron (PT 6000, Kinematica) at 14,000 rpm for 20 s. The homogenate was centrifuged at 48,000×g for 30 min at 4° C. Subsequently, the supernatant was removed and discarded, and the pellet resuspended in 20 ml HEPES-NaOH (20 mM, pH 7.4) containing 0.1 mM EDTA using the Polytron (20 s at 14,000 rpm). This procedure was repeated and the final pellet resuspended in HEPES-NaOH containing 0.1 mM EDTA and homogenized using the Polytron. Typically, aliquots of 2 ml membrane portions were stored at −80° C. With each new membrane batch the dissociation constant (Kd) was determined via a saturation curve. […] Nonspecific binding was defined as the amount of ^3[H]—(S)-4-[(ethyl-phenyl-amino)-methyl]-4,5-dihydro-oxazol-2-ylamine bound in the presence of 10 M unlabeled ligand. All compounds were tested at a broad range of concentrations (10 pM to 10 μM) in duplicates. […] The 96 deep well plates were incubated for 1 hr at 4° C. Incubations were terminated by rapid filtration through Unifilter-96 plates (Packard Instrument Company) and glass filters GF/C (Perkin Elmer) presoaked for 1 hr in polyethylenimine (0.3%) and washed 3 times with 1 ml of cold binding buffer. After addition of 45 μl of Microscint 40 (PerkinElmer) the Unifilter-96 plate was sealed and after 1 hr the radioactivity counted using a TopCount Microplate Scintillation Counter (Packard Instrument Company).

rat TAAR1 = rat TAAR1 (Rattus norvegicus (Rat), UniProt Q923Y9); test: Radioligand binding assay on rat TAAR1; details: for Ki: read-out: Ki(μM) rat, rat TAAR1, HEK-293 membranes, second value of cell pair mouse/rat
Sequence of rat TAAR1 (Q923Y9 whole entry): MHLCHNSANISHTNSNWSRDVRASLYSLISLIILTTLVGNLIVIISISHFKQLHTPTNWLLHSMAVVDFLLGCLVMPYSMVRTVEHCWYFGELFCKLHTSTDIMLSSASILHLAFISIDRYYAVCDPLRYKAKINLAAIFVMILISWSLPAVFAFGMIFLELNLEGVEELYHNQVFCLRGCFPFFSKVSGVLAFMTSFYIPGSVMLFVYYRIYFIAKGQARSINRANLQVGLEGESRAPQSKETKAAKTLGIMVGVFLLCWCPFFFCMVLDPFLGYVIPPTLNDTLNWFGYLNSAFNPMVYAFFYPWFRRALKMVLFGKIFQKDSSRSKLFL
Experimental: as §1
HEK-293 cells stably expressing rat TAAR1 were maintained at 37° C. and 5% CO2 in DMEM high glucose medium, containing fetal calf serum (10%, heat inactivated for 30 min at 56° C.), penicillin/streptomycin (1%), and 375 μg/ml geneticin (Gibco). Cells were released from culture flasks using trypsin/EDTA, harvested, washed twice with ice-cold PBS (without Ca^2+ and Mg^2+), pelleted at 1,000 rpm for 5 min at 4° C., frozen and stored at −80° C. Frozen pellets were suspended in 20 ml HEPES-NaOH (20 mM, pH 7.4) containing 10 mM EDTA and homogenized with a Polytron (PT 6000, Kinematica) at 14,000 rpm for 20 s. The homogenate was centrifuged at 48,000×g for 30 min at 4° C. Subsequently, the supernatant was removed and discarded, and the pellet resuspended in 20 ml HEPES-NaOH (20 mM, pH 7.4) containing 0.1 mM EDTA using the Polytron (20 s at 14,000 rpm). This procedure was repeated and the final pellet resuspended in HEPES-NaOH containing 0.1 mM EDTA and homogenized using the Polytron. Typically, aliquots of 2 ml membrane portions were stored at −80° C. With each new membrane batch the dissociation constant (Kd) was determined via a saturation curve. […] Nonspecific binding was defined as the amount of [H]—(S)-4-[(ethyl-phenyl-amino)-methyl]-4,5-dihydro-oxazol-2-ylamine bound in the presence of 10 M unlabeled ligand. All compounds were tested at a broad range of concentrations (10 pM to 10 μM) in duplicates. […] The 96 deep well plates were incubated for 1 hr at 4° C. Incubations were terminated by rapid filtration through Unifilter-96 plates (Packard Instrument Company) and glass filters GF/C (Perkin Elmer) presoaked for 1 hr in polyethylenimine (0.3%) and washed 3 times with 1 ml of cold binding buffer. After addition of 45 μl of Microscint 40 (PerkinElmer) the Unifilter-96 plate was sealed and after 1 hr the radioactivity counted using a TopCount Microplate Scintillation Counter (Packard Instrument Company).

Sequence of mouse TAAR1 (Q923Y8 whole entry): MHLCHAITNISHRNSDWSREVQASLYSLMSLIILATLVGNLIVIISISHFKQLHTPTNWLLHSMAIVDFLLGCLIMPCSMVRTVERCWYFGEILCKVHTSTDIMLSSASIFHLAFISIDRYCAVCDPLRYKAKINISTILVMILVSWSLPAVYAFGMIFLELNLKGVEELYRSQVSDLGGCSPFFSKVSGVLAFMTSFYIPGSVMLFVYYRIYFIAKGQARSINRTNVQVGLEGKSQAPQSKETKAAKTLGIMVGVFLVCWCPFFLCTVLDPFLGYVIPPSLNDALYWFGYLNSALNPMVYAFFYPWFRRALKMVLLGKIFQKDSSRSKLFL

Row | Ki (mouse TAAR1) [nM] | Ki (rat TAAR1) [µM] | SMILES | Kd (mouse TAAR1; read-out: dissociation constant (Kd) of the radioligand, mouse TAAR1 membranes, saturation curve, usual value) [nM] | Kd (rat TAAR1; read-out: dissociation constant (Kd) of the radioligand, rat TAAR1 membranes, saturation curve, usual value) [nM]
1 | 8.9 | 0.055 | O=C(Nc1ccc(C[C@@H]2NC[C@@H]2F)cc1)c1cnc(C2CC2)nc1 [Example 129, 2-cyclopropyl-N-(4-(((2S,3S)-3-fluoroazetidin-2-yl)methyl)phenyl)pyrimidine-5-carboxamide] |  | 
2 | 28.2 | 0.0156 | O=C(Nc1ccc(C[C@@H]2NC[C@@H]2F)cc1)c1cnc(C(F)(F)F)nc1 [Example 130, N-(4-(((2S,3S)-3-fluoroazetidin-2-yl)methyl)phenyl)-2-(trifluoromethyl)pyrimidine-5-carboxamide] |  | 
3 |  |  | CCN(C[C@H]1COC(N)=N1)c1ccccc1 [reference compound] | ~0.7 | ~2.3

Row | SMILES | Ki (mouse TAAR1) [nM] | Ki (rat TAAR1) [µM] | Kd (mouse TAAR1; read-out: dissociation constant (Kd) of the radioligand, mouse TAAR1 membranes, saturation curve, usual value) [nM] | Kd (rat TAAR1; read-out: dissociation constant (Kd) of the radioligand, rat TAAR1 membranes, saturation curve, usual value) [nM]
4 | CC(C)c1cc(C(=O)Nc2ccc(C[C@@H]3NC[C@@H]3F)cc2)n(C)n1 [Example 131, N-(4-(((2S,3S)-3-fluoroazetidin-2-yl)methyl)phenyl)-3-isopropyl-1-methyl-1H-pyrazole-5-carboxamide] | 119 | 0.126 |  | 
